Source: patent US6326023A, “Synergistic anti-malarial formulation” (priority 2000, dated 2001)

Tests used:
P. yoelii nigeriensis = details: intramuscular; chloroquine, mefloquine and quinine resistant strain; cited from earlier work
[1] = tested on: P. yoelli nigeriensis (MDR II); assay: Blood schizonticidal activity of oral arteether formulation prepared in DMSO-distilled water in infected Swiss mice; format: in vivo, P. yoelli nigeriensis (MDR II) in Swiss mice; details: for Bioavailability by oral route: suspension in DMSO/distilled water
Protocol: Swiss mice 25±1 gm infected intraperitoneally with 1×10^7 parasitized rbcs were administered α/β formulation, prepared in DMSO (3-4 drop) and then suspended in distilled water by oral administration at various doses ranging between 40-100 mg/kg for 5 consecutive days.
Parasitaemia was recorded periodically from tail blood smears upto 28 days of observation. Both 60 and 80 mg/kg×5 doses were able to eliminate the prasitaemia upto 28 days of observation and were curative. […] A very high dose is required for curative action against MDR of infection and its bioavailability by oral route as suspension in D.W. is low.

P. knowlesi/P. fragile = details: intramuscular, rhesus monkey; cited from earlier work
[2] = tested on: P. yoelii nigeriensis (MDR II); assay: Blood schizonticidal activity of α/β arteether formulation in neutralized oil by oral route in infected Swiss mice; format: in vivo, P. yoelii nigeriensis (MDR II) in Swiss mice
Protocol: Efficacy of oral administration of arteether formulation for control of blood induced multi-drug resistant P. yoebi nigerensis (MDR II) in Swiss mice (25±g) was evaluated. The mice was infected intraperitoneafly with 1×10^5 parasitized RBC, and drug treatment 10,15,20 and 30 mg/kg was given once daily for five consecutive days (starting from day 0 to day 4). Blood smears made from tail blood and stained with giemsa were examined periodically till 28 days of infection to record parasitaemia levels and number of surviving/cured mice till 28 days.

[3] = tested on: P. yoelli nigeriensis (MDR II); assay: Blood schizontocidal action of arteether α/β formulation by rectal route in infected Swiss mice; format: in vivo, P. yoelli nigeriensis (MDR II) in Swiss mice
Protocol: α,β-Arteether mixture dissolved in neutralized ground-nut oil was administered to P. yoelli nigeriewis (MDR II) infected mice at 10 mg/kg to 20 mg/kg dose from day 0 to day 2 (for 3 consecutive days) by intra-rectal route. Drug was administered with 0.05-0.25 ml oil (vehicle) in single dose or in 2 divided dose daily. Parasitaemia was recorded daily from tail blood smears stained with Giemsa stain and results are given as % parasitaemia (means±SD). […] Presumptive arteether rectal formulation or suppository administration can save mortality in severe/complicated cases. α/β Arteether rectal route controls the severity of infection and prevents mortality in severe complicated comatose malaria cases and will be specially useful in infants, children and those having frequent vomiting and can not be given oral formulation initially. […] Rectal route α/β arteether formulation remains 1st line of emergency treatment of comatose P. falciparum cases in areas of MDR.

SMILES: CCOC1O[C@@H]2O[C@@]3(C)CC[C@H]4[C@H](C)CC[C@@H]([C@H]1C)[C@@]24OO3 (stereo partly drawn) [α/β arteether]
- Antimalarial activity (P. yoelii nigeriensis): shows antimalarial activity
- minimal effective dose ([1]; Plasmodium yoelii, po, read-out: Curative dose / dose needed for total clearance): 60 mg/kg
- Parasitaemia ([1]; oral, DMSO-distilled water, 40 mg/kg × 5, Day 4): Nil
- Parasitaemia ([1]; oral, DMSO-distilled water, 40 mg/kg × 5, Day 7): Nil
- Parasitaemia ([1]; oral, DMSO-distilled water, 40 mg/kg × 5, Day 10): 3.86%
- Parasitaemia ([1]; oral, DMSO-distilled water, 40 mg/kg × 5, Day 14): 3.5 ± 8.5%
- Parasitaemia ([1]; oral, DMSO-distilled water, 40 mg/kg × 5, Day 21): Nil
- Parasitaemia ([1]; oral, DMSO-distilled water, 40 mg/kg × 5, Day 28): Nil
- Suppression of parasitaemia ([1]; oral, DMSO-distilled water, 40 mg/kg × 5, MDR strain): transient suppression of parasitaemia, but was not curative
- Parasitaemia ([1]; oral, DMSO-distilled water, 60 mg/kg × 5, Day 4): Nil
- Parasitaemia ([1]; oral, DMSO-distilled water, 60 mg/kg × 5, Day 7): Nil
- Parasitaemia ([1]; oral, DMSO-distilled water, 60 mg/kg × 5, Day 10): Nil
- Parasitaemia ([1]; oral, DMSO-distilled water, 60 mg/kg × 5, Day 14): Nil
- Parasitaemia ([1]; oral, DMSO-distilled water, 60 mg/kg × 5, Day 21): Nil
- Parasitaemia ([1]; oral, DMSO-distilled water, 60 mg/kg × 5, Day 28): Nil
- Parasitaemia ([1]; oral, DMSO-distilled water, 80 mg/kg × 5, Day 4): Nil
- Parasitaemia ([1]; oral, DMSO-distilled water, 80 mg/kg × 5, Day 7): Nil
- Parasitaemia ([1]; oral, DMSO-distilled water, 80 mg/kg × 5, Day 10): Nil
- Parasitaemia ([1]; oral, DMSO-distilled water, 80 mg/kg × 5, Day 14): Nil
- Parasitaemia ([1]; oral, DMSO-distilled water, 80 mg/kg × 5, Day 21): Nil
- Parasitaemia ([1]; oral, DMSO-distilled water, 80 mg/kg × 5, Day 28): Nil
- Parasitaemia ([1]; oral, DMSO-distilled water, 100 mg/kg × 5, Day 4): Nil
- Parasitaemia ([1]; oral, DMSO-distilled water, 100 mg/kg × 5, Day 7): Nil
- Parasitaemia ([1]; oral, DMSO-distilled water, 100 mg/kg × 5, Day 10): Nil
- Parasitaemia ([1]; oral, DMSO-distilled water, 100 mg/kg × 5, Day 14): Nil
- Parasitaemia ([1]; oral, DMSO-distilled water, 100 mg/kg × 5, Day 21): Nil
- Parasitaemia ([1]; oral, DMSO-distilled water, 100 mg/kg × 5, Day 28): Nil
- Curative action (elimination of parasitaemia) ([1]; oral, DMSO-distilled water, 60 and 80 mg/kg × 5, upto 28 days): curative
- Bioavailability by oral route [1]: low
- Bioavailability by oral route ([1]; listed as arteether α/β): of lower order
- Cure of experimental cerebral malaria (P. knowlesi/P. fragile): cures experimental cerebral malaria infections
- Parasitaemia (mean ± SD) ([2]; 10 mg/kg × 5 days, Day 6): 0.9 ± 1.0%
- Parasitaemia (mean ± SD) ([2]; 10 mg/kg × 5 days, Day 9): 41 ± 32.8%
- Parasitaemia (mean ± SD) ([2]; 10 mg/kg × 5 days, Day 12): 0.0%
- Number of mice surviving ([2]; 10 mg/kg × 5 days, Day 12, of 8): 2
- Parasitaemia (mean ± SD) ([2]; 10 mg/kg × 5 days, Day 14): 0.0%
- Number of mice surviving ([2]; 10 mg/kg × 5 days, Day 14, of 8): 2
- Parasitaemia (mean ± SD) ([2]; 10 mg/kg × 5 days, Day 28): 0.0%
- Number of mice surviving ([2]; 10 mg/kg × 5 days, Day 28, of 8): 2
- Parasitaemia (mean ± SD) ([2]; 15 mg/kg × 5 days, Day 6): 0.0%
- Parasitaemia (mean ± SD) ([2]; 15 mg/kg × 5 days, Day 9): 5.12 ± 5.7%
- Parasitaemia (mean ± SD) ([2]; 15 mg/kg × 5 days, Day 12): 0.0%
- Number of mice surviving ([2]; 15 mg/kg × 5 days, Day 12, of 8): 4
- Parasitaemia (mean ± SD) ([2]; 15 mg/kg × 5 days, Day 14): 0.0%
- Number of mice surviving ([2]; 15 mg/kg × 5 days, Day 14, of 8): 4
- Parasitaemia (mean ± SD) ([2]; 15 mg/kg × 5 days, Day 28): 0.0%
- Number of mice surviving ([2]; 15 mg/kg × 5 days, Day 28, of 8): 4
- Parasitaemia (mean ± SD) ([2]; 20 mg/kg × 5 days, Day 6): 0.0%
- Parasitaemia (mean ± SD) ([2]; 20 mg/kg × 5 days, Day 9): 3.75 ± 10.6%
- Parasitaemia (mean ± SD) ([2]; 20 mg/kg × 5 days, Day 12): 18.8 ± 32.5%
- Parasitaemia (mean ± SD) ([2]; 20 mg/kg × 5 days, Day 14): 0.0%
- Number of mice surviving ([2]; 20 mg/kg × 5 days, Day 14, of 8): 5
- Parasitaemia (mean ± SD) ([2]; 20 mg/kg × 5 days, Day 28): 0.0%
- Number of mice surviving ([2]; 20 mg/kg × 5 days, Day 28, of 8): 5
- Parasitaemia (mean ± SD) ([2]; 30 mg/kg × 5 days, Day 6): 0.0%
- Parasitaemia (mean ± SD) ([2]; 30 mg/kg × 5 days, Day 9): 0.0%
- Parasitaemia (mean ± SD) ([2]; 30 mg/kg × 5 days, Day 12): 0.0%
- Parasitaemia (mean ± SD) ([2]; 30 mg/kg × 5 days, Day 14): 0.0%
- Number of mice surviving ([2]; 30 mg/kg × 5 days, Day 14, of 8): 8
- Parasitaemia (mean ± SD) ([2]; 30 mg/kg × 5 days, Day 28): 0.0%
- Number of mice surviving ([2]; 30 mg/kg × 5 days, Day 28, of 8): 8
- Drug absorption by rectal route ([3]; neutralized ground-nut oil, rectal): fairly rapid
- Parasitaemia (mean ± SD) ([3]; rectal, 10 mg/kg × 3 days in 2 divided doses at 6 hrs, Day 4): 0.0%
- Parasitaemia (mean ± SD) ([3]; rectal, 10 mg/kg × 3 days in 2 divided doses at 6 hrs, Day 5): 0.0%
- Parasitaemia (mean ± SD) ([3]; rectal, 10 mg/kg × 3 days in 2 divided doses at 6 hrs, Day 11): 10.25 ± 10.0%
- Parasitaemia (mean ± SD) ([3]; rectal, 10 mg/kg × 3 days in 2 divided doses at 6 hrs, Day 28): 0.0%
- Number of animals (in parenthesis) ([3]; rectal, 10 mg/kg × 3 days in 2 divided doses, Day 11, 8 at Day 5): 4
- Number of animals (in parenthesis) ([3]; rectal, 10 mg/kg × 3 days in 2 divided doses, Day 28, 8 at Day 5): 1
- Parasitaemia (mean ± SD) ([3]; rectal, 10 mg/kg × 3 days, Day 4): 0.0002 ± 0.001%
- Number of animals negative (-ve) ([3]; rectal, 10 mg/kg × 3 days, Day 4, of 8): 6
- Parasitaemia (mean ± SD) ([3]; rectal, 10 mg/kg × 3 days, Day 5): 0.002 ± 0.080%
- Number of animals negative (-ve) ([3]; rectal, 10 mg/kg × 3 days, Day 5, of 8): 6
- Parasitaemia (mean ± SD) ([3]; rectal, 10 mg/kg × 3 days, Day 11): 0.0%
- Number of animals (in parenthesis) ([3]; rectal, 10 mg/kg × 3 days, Day 11, 8 at Day 5): 3
- Parasitaemia (mean ± SD) ([3]; rectal, 10 mg/kg × 3 days, Day 28): 0.0%
- Number of animals (in parenthesis) ([3]; rectal, 10 mg/kg × 3 days, Day 28, 8 at Day 5): 3
- Parasitaemia (mean ± SD) ([3]; rectal, 15 mg/kg × 3 days in 2 divided doses at 6 hrs, Day 4): 0.0%
- Parasitaemia (mean ± SD) ([3]; rectal, 15 mg/kg × 3 days in 2 divided doses at 6 hrs, Day 5): 0.0%
- Parasitaemia (mean ± SD) ([3]; rectal, 15 mg/kg × 3 days in 2 divided doses at 6 hrs, Day 11): 0.0%
- Parasitaemia (mean ± SD) ([3]; rectal, 15 mg/kg × 3 days in 2 divided doses at 6 hrs, Day 28): 0.0%
- Number of animals (in parenthesis) ([3]; rectal, 15 mg/kg × 3 days in 2 divided doses, Day 11, 8 at Day 5): 4
- Number of animals (in parenthesis) ([3]; rectal, 15 mg/kg × 3 days in 2 divided doses, Day 28, 8 at Day 5): 4
- Parasitaemia (mean ± SD) ([3]; rectal, 15 mg/kg × 3 days, Day 4): 0.0%
- Parasitaemia (mean ± SD) ([3]; rectal, 15 mg/kg × 3 days, Day 5): 0.0%
- Parasitaemia (mean ± SD) ([3]; rectal, 15 mg/kg × 3 days, Day 11): 0.0%
- Number of animals (in parenthesis) ([3]; rectal, 15 mg/kg × 3 days, Day 11, 8 at Day 5): 4
- Parasitaemia (mean ± SD) ([3]; rectal, 15 mg/kg × 3 days, Day 28): 0.0%
- Number of animals (in parenthesis) ([3]; rectal, 15 mg/kg × 3 days, Day 28, 8 at Day 5): 4
- Parasitaemia (mean ± SD) ([3]; rectal, 20 mg/kg × 3 days in 2 divided doses at 6 hrs, Day 4): 0.0%
- Parasitaemia (mean ± SD) ([3]; rectal, 20 mg/kg × 3 days in 2 divided doses at 6 hrs, Day 5): 0.0%
- Parasitaemia (mean ± SD) ([3]; rectal, 20 mg/kg × 3 days in 2 divided doses at 6 hrs, Day 11): 0.0%
- Parasitaemia (mean ± SD) ([3]; rectal, 20 mg/kg × 3 days in 2 divided doses at 6 hrs, Day 28): 0.0%
- Number of animals (in parenthesis) ([3]; rectal, 20 mg/kg × 3 days in 2 divided doses, Day 11, 8 at Day 5): 6
- Number of animals (in parenthesis) ([3]; rectal, 20 mg/kg × 3 days in 2 divided doses, Day 28, 8 at Day 5): 6
- Parasitaemia (mean ± SD) ([3]; rectal, 20 mg/kg × 3 days, Day 4): 0.0%
- Parasitaemia (mean ± SD) ([3]; rectal, 20 mg/kg × 3 days, Day 5): 0.0%
- Parasitaemia (mean ± SD) ([3]; rectal, 20 mg/kg × 3 days, Day 11): 0.0%
- Number of animals (in parenthesis) ([3]; rectal, 20 mg/kg × 3 days, Day 11, 8 at Day 5): 5
- Parasitaemia (mean ± SD) ([3]; rectal, 20 mg/kg × 3 days, Day 28): 0.0%
- Number of animals (in parenthesis) ([3]; rectal, 20 mg/kg × 3 days, Day 28, 8 at Day 5): 5
- Suppression of parasitaemia after treatment ([3]; rectal, 10.0, 15.0 and 20.0 mg/kg, upto 5 days): suppressed the parasitaemia
